{"source": "patent US20200396998A1", "about": "“HERBICIDAL COMBINATIONS” (UPL LTD, priority 2017, published 2020)", "origin": "cited, not measured here", "tested_on": "broadleaf weed", "conditions": "saflufenacil alone; early season broadleaf weed control"}
{"smiles": "CC(C)N(C)S(=O)(=O)NC(=O)c1cc(-n2c(=O)cc(C(F)(F)F)n(C)c2=O)c(F)cc1Cl", "note": "[Saflufenacil, N′{2-chloro-4-fluoro-5-[1,2,3,6-tetrahydro-3-methyl-2,6-dioxo-4-(trifluoromethyl)pyrimidin-1-yl]benzoyl}-N-isopropyl-N-methylsulfamide]", "values": [{"measurement": "Weed control efficacy over time, in words", "result": "reduced beyond 30 days after treatment"}]}
